From patent US20050261130A1, “Novel surfactants and formulations” (Monsanto Technology LLC, priority 2000, published 2005)

Tested on: Velvetleaf (ABUTH) and Japanese millet (ECHCF)
Assay: Greenhouse herbicidal effectiveness, overall statements for both weeds
Assay type: in vivo, Abutilon theophrasti; Echinochloa crus-galli
Settings: summary sentence of the respective Example
Excerpt: The herbicidal effectiveness data set forth herein report “inhibition” as a percentage following a standard procedure in the art which reflects a visual assessment of plant mortality and growth reduction by comparison with untreated plants, made by technicians specially trained to make and record such observations. In all cases, a single technician makes all assessments of percent inhibition within any one experiment or trial. Such measurements are relied upon and regularly reported by Monsanto Company in the course of its herbicide business.
The following procedure was used for testing compositions of the Examples to determine herbicidal effectiveness, except where otherwise indicated. […]
Pots were assigned to different treatments in a fully randomized experimental design with 6 replications. A set of pots was left untreated as a reference against which effects of the treatments could later be evaluated.
Application of glyphosate compositions was made by spraying with a track sprayer fitted with a 9501 E nozzle calibrated to deliver a spray volume of 93 liters per hectare (l/ha) at a pressure of 165 kilopascals (kPa). After treatment, pots were returned to the greenhouse until ready for evaluation. […]

In the case of “(C12-14)O(CHCH3CH2)O—(CHCH3CH2)N(EO)x(EO)y x + y = 5 [Composition M121]”, the “Herbicidal effectiveness overall or on both ABUTH and ECHCF, comparison in words” value is reported as “more effective for potentiating the IPA”.
